In patent US20230128402A1 (The Trustees of Princeton University, priority 2020, published 2023):
Read-outs that look alike come from different tables or passages of the source.

Key:
[1] = Toxicity experiments in C57Bl6 mice; format: in vivo, mouse; settings: IP, ascending 12.5 to 200 mg/kg at 24h intervals; 25 mg/kg every 3 days for 18 days
Protocol: All mice were originally ordered from the Jackson Laboratory (Bar Harbor, Me.) and breeding was conducted in a specific pathogen-free (SPF) barrier facility. Toxicity experiments were performed on 8-12-week old male and female C57Bl6 mice. MBE1 was dissolved at 50 mg/mL in DMSO followed by a […] into Kolliphor EL, followed by a 1:5 dilution into PBS to yield a 5 mg/ml MBE1 solution, (10% DMSO, 10% Kolliphor EL, 80% PBS). This was administered via IP injection at ascending doses from 12.5 to 200 mg/kg body mass in a set of 3 mice at 24h intervals. Body condition score, food uptake, fecal/urine production, behavior and body weight were measured as toxicity readouts. Five mice were then treated every 3 days with 25 mg/kg MBE1 for 18 days.

[2] = Pharmacokinetic profiling in mice
SUM 159-M1a cells [3] = settings: shown in PCT/US2019/044278; cited from earlier work
[4] = Fast and refeed insulin secretion in db/db mice; format: in vivo, mouse; settings: 40 mg per kg oral gavage once per day, 14 days
Protocol: C57/Bl6 mice homozygous for the spontaneous mutation (Lepr^db, referred to as db/db) that develop severe obesity and Type 2 Diabetes within 12 weeks were raised through standard husbandry practice and we separated into two groups followed by acclimatization for 9 days in single housing.
Daily food intake and body mass were monitored each day and baseline levels of plasma insulin and glucose were monitored to confirm identical group characteristics.
Compound MBE1 was dissolved to 200 mg/mL in DMSO followed by suspension into a 0.5% methycellulose, 0.5% Tween-80 solution. Mice were treated via oral gavage once per day to achieve 40 mg per kg body mass MBE1 or were treated with vehicle control. Mouse body mass and food consumption were monitored daily over 14 days.
At Day 14, food was removed from mouse cages for 16 hours, and then food was reintroduced. Plasma insulin levels were assayed by ELISA at baseline and at 1 hour, 2 hour and 4 hours following provision of chow and ad libitum feeding.

SUM 159-M1a cells [5] = assay: SUM 159-M1a xenograft metastasis, tail vein or intracardiac injection; format: in vivo, mouse; settings: IP in conjunction with paclitaxel; FIGS. 9B and 10B
Protocol: All xenograft experiments were conducted on 8-week old female mice (athymic Nu/Nu, or NOD/SCID Gamma). Xenograft experiments were conducted using 125,000 SUM 159-M1a cells in 100 μL PBS for tail vein or intracardiac injection. Mice were randomized following injection. Bioluminescent imaging (BLI) was conducted using the IVIS 200 system and retroorbital luciferin injection. For drug treatment, MBE1 was given to mice via IP injection in conjunction with paclitaxel (5 mg/mL in 10% ethanol, 10% Kolliphor EL, 80% PBS) at the time intervals and dosages indicated in FIG. 9A (tail vein injection) and FIG. 10A (intracardiac injection).

ALDH1a3 [6] = molecular target: T1, ALDH1a3 (Homo sapiens, UniProt P47895); assay: ALDEFLUOR assay in SUM159-M1a-Aldh1a3 cells; format: cell-based; design: lentiviral vectors containing either the vector backbone or full-length human Aldh1a3; expressed in transfected cells; host or cells: SUM159-M1a human breast cancer cells, lentiviral pLex vector; settings: for inhibition of ALDH1a3 activity (percentage of ALDEFLUOR-positive cells): 100 nM, FIG. 6A; for inhibitory activity detected at concentrations as low as: SUM 159-M1a-Aldh1a3 cells, FIG. 6B
T1 sequence (P47895 1-512): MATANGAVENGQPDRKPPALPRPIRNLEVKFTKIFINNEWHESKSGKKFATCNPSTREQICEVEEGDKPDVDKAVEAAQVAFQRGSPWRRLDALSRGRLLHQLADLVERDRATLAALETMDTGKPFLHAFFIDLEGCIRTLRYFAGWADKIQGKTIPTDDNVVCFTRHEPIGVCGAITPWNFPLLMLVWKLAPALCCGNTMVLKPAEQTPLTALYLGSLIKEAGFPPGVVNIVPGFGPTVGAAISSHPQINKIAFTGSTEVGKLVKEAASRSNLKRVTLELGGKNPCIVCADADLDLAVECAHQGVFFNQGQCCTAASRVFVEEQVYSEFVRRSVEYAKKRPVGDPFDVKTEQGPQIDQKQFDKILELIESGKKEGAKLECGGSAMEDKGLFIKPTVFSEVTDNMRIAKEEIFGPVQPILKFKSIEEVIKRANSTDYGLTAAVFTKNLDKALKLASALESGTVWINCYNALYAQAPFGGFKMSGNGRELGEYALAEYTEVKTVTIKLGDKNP
Protocol: (§1) Cells were counted, centrifuged and resuspended at 1,000,000 cells/mL in ALDEFLUOR™ buffer (Stemcell Technologies). ALDEFLUOR™ substrate (Stemcell Technologies, 1:200) and test compound or 1 mM DEAB were added to cell suspension and incubated at 37° C. for 45 minutes with vortexing every 15 minutes. Cells were centrifuged and resuspended in ALDEFLUOR™ buffer with DAPI at 5 μg/mL. Samples were analyzed with the BD LSR2 flow cytometry platform. Gating was performed using DEAB as a negative control.
(§2) Gating for background fluorescence was performed using 1 millimolar DEAB as a negative control.
The [inh-min]threshold was set at the lower bound of two standard deviations of control samples, while the IC50 threshold was set at 50% of the average of control samples.
An ALDEFLUOR™ assay was also used to assess the relative activity of several compounds described herein against SUM159-M1a-Aldh1a3 cells.

in vivo = settings: male, CD-1/C57BL/6, mouse
HCT116 cells = assay: HCT116 left ventricle injection metastasis xenograft; format: in vivo, mouse; settings: 50 mg/kg subcutaneously every day, paclitaxel 25 mg/kg every three days
Protocol: In another xenograft experiment, mice were injected HCT116 cells via left ventricle injection and monitored with BLI on a weekly basis during the experiment. MBE1.5 or vehicle control were injected subcutaneously every day following injection at 50 mg/kg. At day 7 following injection, paclitaxel was dosed at 25 mg/kg every three days for a total of 6 injections. N=10 mice per group.

HEK293T cells = assay: LC-MS metabolite quantification in HEK293T cells; format: cell-based; settings: 10 uM, 1 hour
Protocol: HEK293T cells were grown to full confluence and media was exchanged with complete DMEM media supplemented with 10% dialyzed fetal bovine serum. Three replicate plates per group were treated with 10 uM MBE1.5 or control DMSO for 1 hour followed by organic extraction with 40:40:20 methanol:acetonitrile:water w/0.5% formic acid (ice cold). Plates were immediately transferred to ice and incubated for 5 minutes then 50 ul 15% NH4HCO3 was added. Cells lysates were scraped and centrifuged at 15000 RCF. Supernatants were then analyzed via LC-MS to quantify various metabolites using standard metabolomic protocols.

[7] = tested on: Sum-159-M1a-Aldh 1a3 cells; assay: Sum-159-M1a-Aldh1a3 tail-vein lung metastasis xenograft; format: in vivo, mouse; settings: 25 mg/kg daily, 12 days, with paclitaxel 12.5 mg/kg every other day
Protocol: In another xenograft experiment, mice were injected with Sum-159-M1a-Aldh 1a3 cells via tail-vein injection, and were randomized following injection. Mice were treated with MBE1.5 (25 mg/kg daily) or vehicle, and paclitaxel (12.5 mg/kg every other day) for twelve days. Lung metastasis progression was tracked by intravital bioluminescence.

[8] = male, CD-1/C57BL/6, mouse, in vivo
SUM 159-M1-p44 cells = assay: SUM 159-M1-p44 tail-vein lung metastasis xenograft; format: in vivo, mouse; settings: 50 mg/kg with 25 mg/kg paclitaxel on days 17, 19 and 21
Protocol: In another xenograft experiment, mice were injected with SUM 159-M1-p44 cells via tail-vein injection, as described above, and randomized following injection. Metastatic burden was imaged on day 16 via intravital imaging. Mice were then treated with paclitaxel (25 mg/kg) and either vehicle or MBE1.5 (50 mg/kg) on days 17, 19 and 21. Lung metastatic burden was then imaged on day 22. Signals were normalized to day 16.

ALDH1a3 [9] = molecular target: T2, ALDH1a3 (Mus musculus, UniProt Q9JHW9); assay: ALDEFLUOR assay on pancreatic cells from diabetic and lean mice; format: cell-based; settings: 10 μM; diabetic vs healthy mice
T2 construct: from tissue; host or cells: pancreatic cells from C57/BL6 mice (diet-induced diabetic and lean)
T2 sequence (Q9JHW9 1-512): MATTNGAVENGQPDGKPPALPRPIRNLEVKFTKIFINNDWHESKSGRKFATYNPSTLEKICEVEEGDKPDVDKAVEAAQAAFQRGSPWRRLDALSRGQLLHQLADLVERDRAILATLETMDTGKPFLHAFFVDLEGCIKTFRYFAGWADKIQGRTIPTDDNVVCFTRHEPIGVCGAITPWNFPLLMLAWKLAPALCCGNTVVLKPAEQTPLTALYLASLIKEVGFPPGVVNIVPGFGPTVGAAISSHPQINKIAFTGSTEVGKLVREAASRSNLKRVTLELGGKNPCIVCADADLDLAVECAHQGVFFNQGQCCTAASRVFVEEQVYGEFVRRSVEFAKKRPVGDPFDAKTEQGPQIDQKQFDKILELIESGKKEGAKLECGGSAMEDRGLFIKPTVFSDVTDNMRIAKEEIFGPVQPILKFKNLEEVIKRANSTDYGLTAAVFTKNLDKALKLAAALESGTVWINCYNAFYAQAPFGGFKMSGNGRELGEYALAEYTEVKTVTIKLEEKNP
Protocol: In the ALDEFLUOR™ assay used in this example, 14 month-old C57/BL6 high fat diet-induced severe obese/diabetic mice and 3 month-old lean C57/B16 mice were euthanized and pancreatic cells were extracted with 1 mg/mL Collagenase 1 digestion in PBS for 1 hour at 37 C. Single cell suspensions were obtained by filtration through 40 μm cell sieves. Cells were washed by two sequential centrifugations and resuspension in PBS.
as §1, with “compound (MBE 1.5 at 10 μM” for “compound”, “platform.” for “platform. Gating was performed using DEAB as a negative control.”
as §2

MDA-MB-468 cells = assay: MDA-MB-468 mammary fat pad primary tumor xenograft; format: in vivo, mouse; settings: 25 mg/kg daily, 12 days
Protocol: In yet another xenograft experiment, mice were injected with MDA-MB-468 cells via mammary fat pad, and were randomized following injection. […] Primary tumor measurements were taken by caliper between each treatment group.

[10] = SUM159-M1a-Aldh1a3 cells, compound at 100 nM
[11] = with paclitaxel 12.5 mg/kg every other day

## CCc1cnccc1C(=O)Nc1cc2c(cc1F)NC(=O)CC2 [Compound 1, 3-ethyl-N-(7-fluoro-2-oxo-3,4-dihydro-1H-quinolin-6-yl)pyridine-4-carboxamide]
[1]
  acute or chronic toxicity: Neither experiment showed any indication of either acute or chronic toxicity
[2]; 10 mg/kg oral gavage or 1 mg/kg intravenous, 0 hours to 24 hours post-dosing
  cage side observations, adverse reactions: no adverse reactions
[2]; male, CD-1/C57BL/6, mouse, plasma, iv, 1 mg/kg
  half-life: 1.79 h
[2]; male, CD-1/C57BL/6, mouse, plasma, oral, 10 mg/kg
  bioavailability: 88%
[2]; male, CD-1/C57BL/6, mouse, plasma, po, 10 mg/kg
  half-life: 1.37 h
[2]; mice, oral gavage (PO) and intravenous (IV)
  time plasma concentrations exceed 5-fold the IC50: > 10 h
SUM 159-M1a cells [3]
  metastatic lesions in mice: shrink metastatic lesions in mice without toxicity
[4]
  plasma insulin after fast and refeed challenge (ELISA): effectively improve insulin secretion
SUM 159-M1a cells [5]
  lung and bone metastasis (BLI): effective therapeutic to treat established metastatic disease
ALDH1a3 [6]
  inhibition of ALDH1a3 activity (percentage of ALDEFLUOR-positive cells): high-affinity compounds for the inhibition of ALDH1a3 activity
  inhibitory activity detected at concentrations as low as: 2 nM
ALDH1a3 [6]; [10]
  Inhi-bitory Activity at 100 nM (%): 99%
  Percent of Cells Positive for ALDEFLUOR ™ at 100 nM: 0.73%

## CCc1ccccc1C(=O)Nc1cc2c(cc1F)NC(=O)CC2 [Compound 4, 2-ethyl-N-(7-fluoro-2-oxo-3,4-dihydro-1H-quinolin-6-yl)benzamide]
In vivo
  bioavailability: 62.5%
In vivo; iv, 1 mg/kg
  half-life: 1.22 h
In vivo; po, 10 mg/kg
  half-life: 1.7 h
HCT116 cells
  colorectal cancer metastasis (BLI): slows colorectal cancer metastasis
HEK293T cells
  NADH (LC-MS): depletion of NADH
  adipate semialdehyde (LC-MS): increases in adipate semialdehyde
[7]
  survival: extended survival in mice with late-stage established breast cancer lung metastasis
[8]
  time plasma concentrations exceed 5-fold the IC50: > 10 h
SUM 159-M1-p44 cells
  lung metastatic burden (BLI): caused regression of established metastatic disease
ALDH1a3 [6]
  inhibition of ALDH1a3 activity (percentage of ALDEFLUOR-positive cells): high-affinity compounds for the inhibition of ALDH1a3 activity
  inhibitory activity detected at concentrations as low as: 2 nM
ALDH1a3 [9]
  percentage of ALDEFLUOR-positive pancreatic islet cells: high-affinity compound for the inhibition of ALDH1a3 activity
MDA-MB-468 cells; n=6, with paclitaxel
  tumors completely eliminated: tumors of two mice in the MBE1.5 treatment group were completely eliminated
MDA-MB-468 cells; [11]
  gross toxicity (body mass): no gross toxicity
  primary tumor volume: caused regression of primary breast tumors
